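Interpolation was linear, between the two tested concentrations surrounding the appropriate level; five concentrations were tested over 48 hours in 96-well plates. TGI: concentration producing complete growth inhibition.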
Assays:
Assay in all cases: growth of human tumour cells (NCI), 48 h
A498 renal = system: A498 renal
A549 NSCLC = system: A549 NSCLC
ACHN renal = system: ACHN renal
BT-549 breast = system: BT-549 breast
CAKI-1 renal = system: CAKI-1 renal
COLO 205 colon = system: COLO 205 colon
DU-145 prostate = system: DU-145 prostate
HCC-2998 colon = system: HCC-2998 colon
HCT-116 colon = system: HCT-116 colon
HCT-15 colon = system: HCT-15 colon
HL-60(TB) leukemia = system: HL-60(TB) leukemia
HOP-62 NSCLC = system: HOP-62 NSCLC
HOP-92 NSCLC = system: HOP-92 NSCLC
HS 578T breast = system: HS 578T breast
HT29 colon = system: HT29 colon
IGROV1 ovarian = system: IGROV1 ovarian
K-562 leukemia = system: K-562 leukemia
KM12 colon = system: KM12 colon
LOX IMVI melanoma = system: LOX IMVI melanoma
M14 melanoma = system: M14 melanoma
MDA-MB-231 breast = system: MDA-MB-231 breast
MDA-MB-435 = system: MDA-MB-435
MDA-N = system: MDA-N
MOLT-4 leukemia = system: MOLT-4 leukemia
NCI-H226 lung = system: NCI-H226 lung
NCI-H23 lung = system: NCI-H23 lung
NCI-H460 lung = system: NCI-H460 lung
NCI/ADR-RES ovarian = system: NCI/ADR-RES ovarian
OVCAR-3 ovarian = system: OVCAR-3 ovarian
OVCAR-4 ovarian = system: OVCAR-4 ovarian
OVCAR-5 ovarian = system: OVCAR-5 ovarian
OVCAR-8 ovarian = system: OVCAR-8 ovarian
PC-3 prostate = system: PC-3 prostate
RPMI-8226 leukemia = system: RPMI-8226 leukemia
SF-268 CNS = system: SF-268 CNS
SF-539 CNS = system: SF-539 CNS
SK-MEL-2 melanoma = system: SK-MEL-2 melanoma
SK-MEL-28 melanoma = system: SK-MEL-28 melanoma
SN12C renal = system: SN12C renal
SNB-19 CNS = system: SNB-19 CNS
SR leukemia = system: SR leukemia
T-47D breast = system: T-47D breast
TK-10 renal = system: TK-10 renal
U251 CNS = system: U251 CNS
UACC-257 melanoma = system: UACC-257 melanoma
UACC-62 melanoma = system: UACC-62 melanoma
UO-31 renal = system: UO-31 renal
786-0 renal = system: 786-0 renal
CCRF-CEM leukemia = system: CCRF-CEM leukemia
EKVX NSCLC = system: EKVX NSCLC
MCF7 breast = system: MCF7 breast
SF-295 CNS = system: SF-295 CNS
SK-MEL-5 melanoma = system: SK-MEL-5 melanoma
SK-OV-3 ovarian = system: SK-OV-3 ovarian
SNB-75 CNS = system: SNB-75 CNS
SW-620 colon = system: SW-620 colon

Question: Which TGI (A498 renal) does the source give for `CC(C)C[C@@H](NC(=O)[C@@H](Cc1cccc2ccccc12)NC(=O)N1CCOCC1)B(O)O` here?
Answer: The TGI was 93.8 µM.

Question: And the TGI (A549 NSCLC)?
Answer: Its TGI is over 100 µM.

Question: What about the TGI (ACHN renal) of the same compound?
Answer: The TGI was over 100 µM.

Question: What about the TGI (BT-549 breast) of the same compound?
Answer: The TGI was over 100 µM.

Question: And the TGI (CAKI-1 renal)?
Answer: Its TGI is over 100 µM.

Question: And the TGI (COLO 205 colon)?
Answer: The TGI was over 100 µM.

Question: What about the TGI (DU-145 prostate) of the same compound?
Answer: The TGI was over 100 µM.

Question: What about the TGI (HCC-2998 colon) of the same compound?
Answer: The TGI was over 100 µM.

Question: And the TGI (HCT-116 colon)?
Answer: The TGI was over 100 µM.

Question: What about the TGI (HCT-15 colon) of the same compound?
Answer: The TGI was over 100 µM.

Question: What about the TGI (HL-60(TB) leukemia) of the same compound?
Answer: The TGI was over 100 µM.

Question: What about the TGI (HOP-62 NSCLC) of the same compound?
Answer: The TGI was over 100 µM.

Question: What about the TGI (HOP-92 NSCLC) of the same compound?
Answer: The TGI was over 100 µM.

Question: And the TGI (HS 578T breast)?
Answer: Its TGI is over 100 µM.

Question: What about the TGI (HT29 colon) of the same compound?
Answer: Its TGI is over 100 µM.

Question: What about the TGI (IGROV1 ovarian) of the same compound?
Answer: Its TGI is over 100 µM.

Question: What about the TGI (K-562 leukemia) of the same compound?
Answer: The TGI was over 100 µM.

Question: And the TGI (KM12 colon)?
Answer: Its TGI is over 100 µM.

Question: And the TGI (LOX IMVI melanoma)?
Answer: The TGI was over 100 µM.

Question: And the TGI (M14 melanoma)?
Answer: Its TGI is 78.7 µM.

Question: What about the TGI (MDA-MB-231 breast) of the same compound?
Answer: The TGI was over 100 µM.

Question: What about the TGI (MDA-MB-435) of the same compound?
Answer: Its TGI is 42.9 µM.

Question: What about the TGI (MDA-N) of the same compound?
Answer: The TGI was 41.8 µM.

Question: And the TGI (MOLT-4 leukemia)?
Answer: The TGI was 96.5 µM.

Question: What about the TGI (NCI-H226 lung) of the same compound?
Answer: Its TGI is 36.8 µM.

Question: What about the TGI (NCI-H23 lung) of the same compound?
Answer: The TGI was over 100 µM.

Question: What about the TGI (NCI-H460 lung) of the same compound?
Answer: Its TGI is over 100 µM.

Question: What about the TGI (NCI/ADR-RES ovarian) of the same compound?
Answer: Its TGI is over 100 µM.

Question: What about the TGI (OVCAR-3 ovarian) of the same compound?
Answer: The TGI was 85.8 µM.

Question: What about the TGI (OVCAR-4 ovarian) of the same compound?
Answer: Its TGI is over 100 µM.

Question: And the TGI (OVCAR-5 ovarian)?
Answer: The TGI was over 100 µM.

Question: And the TGI (OVCAR-8 ovarian)?
Answer: Its TGI is over 100 µM.

Question: What about the TGI (PC-3 prostate) of the same compound?
Answer: The TGI was over 100 µM.

Question: What about the TGI (RPMI-8226 leukemia) of the same compound?
Answer: The TGI was over 100 µM.

Question: And the TGI (SF-268 CNS)?
Answer: Its TGI is over 100 µM.

Question: And the TGI (SF-539 CNS)?
Answer: The TGI was over 100 µM.

Question: What about the TGI (SK-MEL-2 melanoma) of the same compound?
Answer: Its TGI is over 100 µM.

Question: What about the TGI (SK-MEL-28 melanoma) of the same compound?
Answer: Its TGI is 64.1 µM.

Question: And the TGI (SN12C renal)?
Answer: Its TGI is over 100 µM.

Question: And the TGI (SNB-19 CNS)?
Answer: Its TGI is over 100 µM.

Question: What about the TGI (SR leukemia) of the same compound?
Answer: The TGI was over 100 µM.

Question: What about the TGI (T-47D breast) of the same compound?
Answer: The TGI was over 100 µM.

Question: What about the TGI (TK-10 renal) of the same compound?
Answer: The TGI was 90.7 µM.

Question: And the TGI (U251 CNS)?
Answer: Its TGI is over 100 µM.

Question: What about the TGI (UACC-257 melanoma) of the same compound?
Answer: Its TGI is over 100 µM.

Question: What about the TGI (UACC-62 melanoma) of the same compound?
Answer: Its TGI is over 100 µM.

Question: And the TGI (UO-31 renal)?
Answer: Its TGI is over 100 µM.

Question: For `NC(=S)Nc1[nH]c(=S)nc2[nH]ccc12`, which TGI (786-0 renal) is on record?
Answer: Its TGI is over 100 µM.

Question: What about the TGI (A498 renal) of the same compound?
Answer: The TGI was over 100 µM.

Question: What about the TGI (A549 NSCLC) of the same compound?
Answer: The TGI was over 100 µM.

Question: And the TGI (ACHN renal)?
Answer: Its TGI is over 100 µM.

Question: What about the TGI (BT-549 breast) of the same compound?
Answer: The TGI was over 100 µM.

Question: What about the TGI (CAKI-1 renal) of the same compound?
Answer: The TGI was over 100 µM.

Question: And the TGI (CCRF-CEM leukemia)?
Answer: Its TGI is over 100 µM.

Question: And the TGI (COLO 205 colon)?
Answer: Its TGI is over 100 µM.

Question: What about the TGI (DU-145 prostate) of the same compound?
Answer: Its TGI is over 100 µM.

Question: What about the TGI (EKVX NSCLC) of the same compound?
Answer: Its TGI is over 100 µM.

Question: What about the TGI (HCT-116 colon) of the same compound?
Answer: Its TGI is over 100 µM.

Question: And the TGI (HCT-15 colon)?
Answer: Its TGI is over 100 µM.

Question: What about the TGI (HL-60(TB) leukemia) of the same compound?
Answer: Its TGI is 53.2 µM.

Question: What about the TGI (HOP-62 NSCLC) of the same compound?
Answer: Its TGI is over 100 µM.

Question: What about the TGI (HOP-92 NSCLC) of the same compound?
Answer: Its TGI is over 100 µM.

Question: And the TGI (HS 578T breast)?
Answer: The TGI was over 100 µM.

Question: And the TGI (HT29 colon)?
Answer: Its TGI is over 100 µM.

Question: And the TGI (IGROV1 ovarian)?
Answer: Its TGI is over 100 µM.

Question: What about the TGI (K-562 leukemia) of the same compound?
Answer: The TGI was over 100 µM.

Question: What about the TGI (KM12 colon) of the same compound?
Answer: The TGI was over 100 µM.

Question: What about the TGI (LOX IMVI melanoma) of the same compound?
Answer: Its TGI is over 100 µM.

Question: And the TGI (M14 melanoma)?
Answer: The TGI was over 100 µM.

Question: And the TGI (MCF7 breast)?
Answer: Its TGI is over 100 µM.

Question: What about the TGI (MDA-MB-231 breast) of the same compound?
Answer: Its TGI is over 100 µM.

Question: And the TGI (MDA-MB-435)?
Answer: The TGI was over 100 µM.

Question: What about the TGI (MDA-N) of the same compound?
Answer: Its TGI is over 100 µM.

Question: What about the TGI (MOLT-4 leukemia) of the same compound?
Answer: The TGI was over 100 µM.

Question: What about the TGI (NCI-H226 lung) of the same compound?
Answer: Its TGI is over 100 µM.

Question: What about the TGI (NCI-H23 lung) of the same compound?
Answer: Its TGI is over 100 µM.

Question: What about the TGI (NCI-H460 lung) of the same compound?
Answer: Its TGI is over 100 µM.

Question: And the TGI (NCI/ADR-RES ovarian)?
Answer: The TGI was over 100 µM.

Question: What about the TGI (OVCAR-3 ovarian) of the same compound?
Answer: The TGI was 94.3 µM.

Question: What about the TGI (OVCAR-5 ovarian) of the same compound?
Answer: Its TGI is over 100 µM.

Question: And the TGI (OVCAR-8 ovarian)?
Answer: Its TGI is over 100 µM.

Question: What about the TGI (PC-3 prostate) of the same compound?
Answer: The TGI was over 100 µM.

Question: What about the TGI (RPMI-8226 leukemia) of the same compound?
Answer: Its TGI is over 100 µM.

Question: What about the TGI (SF-268 CNS) of the same compound?
Answer: Its TGI is over 100 µM.

Question: What about the TGI (SF-295 CNS) of the same compound?
Answer: The TGI was over 100 µM.

Question: And the TGI (SF-539 CNS)?
Answer: The TGI was over 100 µM.

Question: What about the TGI (SK-MEL-2 melanoma) of the same compound?
Answer: Its TGI is over 100 µM.

Question: And the TGI (SK-MEL-28 melanoma)?
Answer: The TGI was over 100 µM.

Question: And the TGI (SK-MEL-5 melanoma)?
Answer: Its TGI is over 100 µM.

Question: What about the TGI (SK-OV-3 ovarian) of the same compound?
Answer: The TGI was over 100 µM.

Question: What about the TGI (SN12C renal) of the same compound?
Answer: Its TGI is over 100 µM.

Question: What about the TGI (SNB-19 CNS) of the same compound?
Answer: The TGI was over 100 µM.

Question: What about the TGI (SNB-75 CNS) of the same compound?
Answer: The TGI was 62.9 µM.

Question: And the TGI (SR leukemia)?
Answer: Its TGI is over 100 µM.

Question: What about the TGI (SW-620 colon) of the same compound?
Answer: The TGI was over 100 µM.

Question: And the TGI (T-47D breast)?
Answer: Its TGI is over 100 µM.

Question: What about the TGI (TK-10 renal) of the same compound?
Answer: Its TGI is over 100 µM.

Question: What about the TGI (U251 CNS) of the same compound?
Answer: The TGI was over 100 µM.

Question: What about the TGI (UACC-257 melanoma) of the same compound?
Answer: Its TGI is over 100 µM.

Question: What about the TGI (UACC-62 melanoma) of the same compound?
Answer: The TGI was over 100 µM.

Question: And the TGI (UO-31 renal)?
Answer: Its TGI is over 100 µM.

Reference: PubChem BioAssay (NCI)
